Values joined by “and” are separate entries in the source; they are usually repeats but may differ in a detail not shown here. Equal entries are not always repeated.
Test system: PDC 521955-158-R6-J3 spheroids, viability
Assay: Anticancer human tumor 521955-158-R6-J3-PDC patient-derived pancreatic carcinoma cell line growth inhibition [TAK]
Settings: spheroids with HUVEC and MSC; for viability, T/C: stronger effect = lower value
Summary of the method: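 Spheroids of 60% malignant cells, 25% HUVEC and 15% hMSC were exposed to targeted agents combined with TAK-243 or ipatasertib. Concentrations started at or near clinical Cmax (10 microM if unknown) and descended in half-log steps.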

[1] = curve of first compound, second compound 0.3 µM
[2] = curve of first compound, second compound 0.949 µM
[3] = curve of first compound, second compound 3 µM
[4] = curve of first compound, second compound 9.49 µM
[5] = curve of first compound, second compound 30 µM
[6] = second compound 0.3 µM, first compound 0.00316 µM
[7] = second compound 0.3 µM, first compound 0.01 µM
[8] = second compound 0.3 µM, first compound 0.0316 µM
[9] = second compound 0.3 µM, first compound 0.1 µM
[10] = second compound 0.949 µM, first compound 0.00316 µM
[11] = second compound 0.949 µM, first compound 0.01 µM
[12] = second compound 0.949 µM, first compound 0.0316 µM
[13] = second compound 0.949 µM, first compound 0.1 µM
[14] = second compound 3 µM, first compound 0.00316 µM
[15] = second compound 3 µM, first compound 0.01 µM
[16] = second compound 3 µM, first compound 0.0316 µM
[17] = second compound 3 µM, first compound 0.1 µM
[18] = second compound 9.49 µM, first compound 0.00316 µM
[19] = second compound 9.49 µM, first compound 0.01 µM
[20] = second compound 9.49 µM, first compound 0.0316 µM
[21] = second compound 9.49 µM, first compound 0.1 µM
[22] = second compound 30 µM, first compound 0.00316 µM
[23] = second compound 30 µM, first compound 0.01 µM
[24] = second compound 30 µM, first compound 0.0316 µM
[25] = second compound 30 µM, first compound 0.1 µM
[26] = second compound 0.3 µM, first compound 0.316 µM
[27] = second compound 0.3 µM, first compound 1 µM
[28] = second compound 0.949 µM, first compound 0.316 µM
[29] = second compound 0.949 µM, first compound 1 µM
[30] = second compound 3 µM, first compound 0.316 µM
[31] = second compound 3 µM, first compound 1 µM
[32] = second compound 9.49 µM, first compound 0.316 µM
[33] = second compound 9.49 µM, first compound 1 µM
[34] = second compound 30 µM, first compound 0.316 µM
[35] = second compound 30 µM, first compound 1 µM
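Also: spheroids exposed to drugs for 7 days before readout.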
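For viability, T/C in this document: 100% = DMSO vehicle control viability.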

`CCCS(=O)(=O)Nc1ccc(F)c(C(=O)c2c[nH]c3ncc(-c4ccc(Cl)cc4)cc23)c1F` was tested, and the viability, T/C (compound 0.316 µM) was 92.9% and 82.9%, the viability, T/C (compound 1 µM) was 101% and 67% and the viability, T/C (compound 3.16 µM) was 88.1% and 85%. For the same compound, the viability, T/C (compound 10 µM) was 101% and 75%, the viability, T/C (compound 31.6 µM) was 109% and 51.8% and the viability, T/C (compound 100 µM) was 99.2% and 114%. It also gave an IC50 (curve of compound) greater than 100000 nM.

For `CC(=O)Nc1cccc(-n2c(=O)n(C3CC3)c(=O)c3c(Nc4ccc(I)cc4F)n(C)c(=O)c(C)c32)c1`, the viability, T/C (compound 94.9 pM) was 98.2% and 112%, the viability, T/C (compound 0.0003 µM) was 100% and 90.8% and the viability, T/C (compound 0.000949 µM) was 98.2% and 92.1%. The viability, T/C (compound 0.003 µM) was 94.2% and 82%, the viability, T/C (compound 0.00949 µM) was 72.4% and 68.3% and the viability, T/C (compound 0.03 µM) was 47% and 47.1%. For the same compound, the IC50 (curve of compound) was 26.2 nM and 29.5 nM.

For `COC1CC2CCC(C)C(O)(O2)C(=O)C(=O)N2CCCCC2C(=O)OC(C(C)CC2CCC(OCCO)C(OC)C2)CC(=O)C(C)C=C(C)C(O)C(OC)C(=O)C(C)CC(C)C=CC=CC=C1C` (stereo not given), the viability, T/C (compound 0.000316 µM) was 93.2% and 99%, the viability, T/C (compound 0.001 µM) was 107% and 78.7% and the viability, T/C (compound 0.00316 µM) was 105% and 85.4%. The viability, T/C (compound 0.01 µM) was 100% and 94.5%, the viability, T/C (compound 0.0316 µM) was 84.9% and 90.9% and the viability, T/C (compound 0.1 µM) was 84.3% and 82.4%. It also gave an IC50 (curve of compound) greater than 100 nM.

`CC(C)n1nc(-c2ccc3oc(N)nc3c2)c2c(N)ncnc21` + CC(C)NCC(C(=O)N1CCN(c2ncnc3c2C(C)CC3O)CC1)c1ccc(Cl)cc1 was tested, and the IC50 [1] was greater than 100 nM, the IC50 [2] was 49.5 nM and the IC50 [3] was 24 nM. For the same compound, the IC50 [4] was 16.3 nM, the IC50 [5] was 6.44 nM and the viability, T/C (second compound 0.3 µM, first compound 0.000316 µM) was 83.2%. It also gave a viability, T/C (second compound 0.3 µM, first compound 0.001 µM) of 85%, a viability, T/C [6] of 87.1% and a viability, T/C [7] of 80.5%. The viability, T/C [8] was 70.3%, the viability, T/C [9] was 54.1% and the viability, T/C (second compound 0.949 µM, first compound 0.000316 µM) was 70.3%. It also gave a viability, T/C (second compound 0.949 µM, first compound 0.001 µM) of 74.7%, a viability, T/C [10] of 71.9% and a viability, T/C [11] of 77%. For the same compound, the viability, T/C [12] was 56.3%, the viability, T/C [13] was 40.2% and the viability, T/C (second compound 3 µM, first compound 0.000316 µM) was 75.6%. For the same compound, the viability, T/C (second compound 3 µM, first compound 0.001 µM) was 76.8%, the viability, T/C [14] was 70% and the viability, T/C [15] was 66.8%. It also gave a viability, T/C [16] of 44.6%, a viability, T/C [17] of 29.8% and a viability, T/C (second compound 9.49 µM, first compound 0.000316 µM) of 64%. For the same compound, the viability, T/C (second compound 9.49 µM, first compound 0.001 µM) was 67.3%, the viability, T/C [18] was 73.9% and the viability, T/C [19] was 55%. The viability, T/C [20] was 40.3%, the viability, T/C [21] was 26.4% and the viability, T/C (second compound 30 µM, first compound 0.000316 µM) was 63.2%. The viability, T/C (second compound 30 µM, first compound 0.001 µM) was 62.5%, the viability, T/C [22] was 54.5% and the viability, T/C [23] was 47.4%. For the same compound, the viability, T/C [24] was 33.4% and the viability, T/C [25] was 23.9%.

For `Cc1nc(NC(=O)N2CCCC2C(N)=O)sc1-c1ccnc(C(C)(C)C(F)(F)F)c1` (stereo not given), the viability, T/C (compound 0.0316 µM) was 82.3% and 93.5%, the viability, T/C (compound 0.1 µM) was 87.3% and 82% and the viability, T/C (compound 0.316 µM) was 73.3% and 81.9%. The viability, T/C (compound 1 µM) was 68.2% and 77.4%, the viability, T/C (compound 3.16 µM) was 72.5% and 67% and the viability, T/C (compound 10 µM) was 58.3% and 54.9%. The IC50 (curve of compound) was greater than 10000 nM.

`Cc1nc(NC(=O)N2CCCC2C(N)=O)sc1-c1ccnc(C(C)(C)C(F)(F)F)c1` (stereo not given) + CC(C)NCC(C(=O)N1CCN(c2ncnc3c2C(C)CC3O)CC1)c1ccc(Cl)cc1 gave an IC50 [1] greater than 10000 nM, an IC50 [2] of 4490 nM and an IC50 [3] of 2820 nM. The IC50 [4] was 509 nM, the IC50 [5] was 481 nM and the viability, T/C [8] was 70.5%. For the same compound, the viability, T/C [9] was 77%, the viability, T/C [26] was 72.7% and the viability, T/C [27] was 63.1%. For the same compound, the viability, T/C (second compound 0.3 µM, first compound 3.16 µM) was 66.4%, the viability, T/C (second compound 0.3 µM, first compound 10 µM) was 55.6% and the viability, T/C [12] was 63.4%. The viability, T/C [13] was 64%, the viability, T/C [28] was 57.3% and the viability, T/C [29] was 55.3%. For the same compound, the viability, T/C (second compound 0.949 µM, first compound 3.16 µM) was 54.3%, the viability, T/C (second compound 0.949 µM, first compound 10 µM) was 44.9% and the viability, T/C [16] was 57.2%. For the same compound, the viability, T/C [17] was 62.7%, the viability, T/C [30] was 58.8% and the viability, T/C [31] was 51.5%. For the same compound, the viability, T/C (second compound 3 µM, first compound 3.16 µM) was 51.2%, the viability, T/C (second compound 3 µM, first compound 10 µM) was 38.9% and the viability, T/C [20] was 63%. The viability, T/C [21] was 58.4%, the viability, T/C [32] was 48.2% and the viability, T/C [33] was 47.2%. The viability, T/C (second compound 9.49 µM, first compound 3.16 µM) was 46.9%, the viability, T/C (second compound 9.49 µM, first compound 10 µM) was 35.1% and the viability, T/C [24] was 60%. For the same compound, the viability, T/C [25] was 49.2%, the viability, T/C [34] was 54.5% and the viability, T/C [35] was 46.8%. For the same compound, the viability, T/C (second compound 30 µM, first compound 3.16 µM) was 38.9% and the viability, T/C (second compound 30 µM, first compound 10 µM) was 26.2%.

In the case of `CC(C)CC(NC(=O)C(Cc1ccccc1)NC(=O)c1cnccn1)B(O)O` (stereo not given), the viability, T/C (compound 31.6 pM) is reported as 101% and 120%, the viability, T/C (compound 0.0001 µM) is reported as 97.6% and 107% and the viability, T/C (compound 0.000316 µM) is reported as 91.6% and 103%. For the same compound, the viability, T/C (compound 0.001 µM) was 108% and 93.6%, the viability, T/C (compound 0.00316 µM) was 111% and 87.4% and the viability, T/C (compound 0.01 µM) was 33.2% and 102%. For the same compound, the IC50 (curve of compound) was 7.56 nM and > 10 nM.

`COc1c(OCCCN2CCOCC2)ccc2c3n(c(=NC(=O)c4cnc(N)nc4)nc12)CCN3` + CC(C)NCC(C(=O)N1CCN(c2ncnc3c2C(C)CC3O)CC1)c1ccc(Cl)cc1 showed an IC50 [1] of 38.4 nM, an IC50 [2] of 7.43 nM and an IC50 [3] of less than 3.16 nM. For the same compound, the IC50 [4] was less than 3.16 nM, the IC50 [5] was less than 3.16 nM and the viability, T/C [6] was 70.9%. For the same compound, the viability, T/C [7] was 63.6%, the viability, T/C [8] was 51.2% and the viability, T/C [9] was 41%. For the same compound, the viability, T/C [26] was 27%, the viability, T/C [27] was 21.6% and the viability, T/C [10] was 52.4%. The viability, T/C [11] was 48.2%, the viability, T/C [12] was 44.9% and the viability, T/C [13] was 37.4%. It also gave a viability, T/C [28] of 25.9%, a viability, T/C [29] of 20.2% and a viability, T/C [14] of 46.8%. The viability, T/C [15] was 43.5%, the viability, T/C [16] was 37.8% and the viability, T/C [17] was 32.9%. For the same compound, the viability, T/C [30] was 25.7%, the viability, T/C [31] was 19.5% and the viability, T/C [18] was 43.3%. The viability, T/C [19] was 37.5%, the viability, T/C [20] was 35.8% and the viability, T/C [21] was 29.9%. The viability, T/C [32] was 22.8%, the viability, T/C [33] was 19.8% and the viability, T/C [22] was 41.1%. It also gave a viability, T/C [23] of 34.5%, a viability, T/C [24] of 37% and a viability, T/C [25] of 24.6%. The viability, T/C [34] was 18% and the viability, T/C [35] was 15.4%.
